These results are taken from patent publication US8048880B2, “Treatment of cardiovascular disease and dyslipidemia using secretory phospholipase A2 (SPLA2) inhibitors and SPLA2 inhibitor combination therapies” (Anthera Pharmaceuticals, Inc., priority 2007, dated 2011).

Experiment [1] deals with CRP. Put plainly: Serum CRP concentration in humans, A-002 once a day (Example 6). The note with it: week 8. Format: in vivo, human. The method, then:
135 human subjects over the age of 18 with CVD, specifically stable CAD, were randomized to receive either placebo or one of two dosages (250 mg or 500 mg) of A-002 via once a day oral administration over an eight week time period. 89 of the subjects received A-002, while 46 of the subjects received placebo. Subjects that were receiving statins or other compounds used in the treatment of CVD at the outset of the trial continued to receive those therapeutics throughout the trial. 121 of the 135 subjects were on statins during the trial. There was little variation between dosage groups with respect to age, height, weight, or BMI.
Levels of various lipids and inflammatory markers were measured at the outset of the trial and at weeks two, four, and/or eight weeks after the start of A-002 administration. In addition, plasma A-002 levels were measured at various intervals. Lipids that were measured included LDL, small LDL particle, oxidized LDL, non-HDL cholesterol, total cholesterol, ApoB, and triglycerides. In addition, levels of the inflammatory marker CRP were measured. Lipid and inflammatory marker levels at each timepoint were compared to the baseline measurements to determine the effect of A-002 administration. For data sets with a normal distribution, mean levels of lipids or inflammatory markers were analyzed. For data sets with non-normal distribution, median levels were analyzed. LDL particle size was also assessed.

The test system of experiment [2] is ApoE−/− mice. Put plainly: En face lesion size in ApoE−/− mice on high fat diet, A-002 and/or statin (Example 3). The class given is in vivo. The settings on record: alone or plus 0.02 g/kg pravastatin, 12 weeks. Here is the method: Body weight, plasma total cholesterol, and plasma HDL levels were measured for six groups of twelve ApoE^−/− mice. The mice were then placed on a high fat diet for twelve weeks to allow for formation of significant fatty atherosclerotic plaques. The high fat diet was a modified version of the Western diet (TD.88137, Harlan Teklad, Madison, Wis.) consisting of casein (195 g/kg), DL-methionine (3 g/kg), sucrose (341.44 g/kg), corn starch (150 g/kg), anhydrous milkfat (210 g/kg), cholesterol (1.5 g/kg), cellulose (50 g/kg), mineral mix AlN-76 (Teklad; 35 g/kg), calcium carbonate (4 g/kg), vitamin mix (Teklad #40060; 10 g/kg), ethyoxyquin (antioxidant, 0.04 g/kg), and either 0.0156 g/kg (“low dose”) A-002 (Group A), 1.56 g/kg (“high dose”) A-002 (Group B), 0.02 g/kg pravastatin (Group C), low dose A-002 plus 0.02 g/kg pravastatin (Group D), high dose A-002 plus 0.02 g/kg pravastatin (Group E), or vehicle only (Group F). Mice were administered diets A-F in a blinded manner, and food was provided ad libitum. The diet was initially prepared based on the assumption that each mouse weighed 22.5 g and ate 4.5 g/day. Based on body weight and food consumption, the diet was modified over the 12 week course of treatment to adjust for a body weight of 26 g and a food intake of 2.5 g/day. The dosages of A-002 were selected to cover a range of 100-fold based on pharmacokinetics in ApoE^−/− mice as well as toxicology and previously observed efficacy in this model.
After twelve weeks, mice were sacrificed and plasma, heart tissue, and aortic tissue were collected. En face lesion size was determined via digital imaging analysis. Plaque content (as measured as en face lesion) was reduced in mice administered A-002 alone, statin alone, or A-002 in combination with statin. The reduction in plaque content in mice administered A-002 plus statin was substantially greater than the reduction in mice administered either compound alone (Table 2, compare Group D vs. Groups A and C; Group E vs. Groups B and C). Further, the reduction in plaque content in mice administered A-002 plus statin was substantially greater than the sum of the reduction in plaque content in mice administered A-002 alone and mice administered statin alone.

Experiment [3] concerns IL-6. Put plainly: Serum IL-6 concentration in humans with metabolic syndrome, A-002 twice a day (Example 4). Format: in vivo, human. The settings on record: metabolic syndrome subpopulation, week 8. The method, then:
(§1) 204 human subjects from the United States with CVD, specifically stable coronary artery disease, were randomized to receive placebo or A-002 via oral administration twice a day over an eight week administration period at dosages of 50 mg, 100 mg, 250 mg, or 500 mg. Levels of various lipids and inflammatory markers were measured at the outset of the trial and at the end of weeks four and/or eight. For data sets with a normal distribution, mean levels of lipids or inflammatory markers were analyzed. For data sets with non-normal distribution, median levels were analyzed. […] In addition, administration of A-002 decreased median levels of CRP (Table 11).
(§2) Serum TG, CRP, and IL-6 levels were measured at eight weeks in 86 subjects from the ITT population diagnosed with metabolic syndrome.

Experiment [4] relates to CRP. The experiment can be described thus: Serum CRP concentration in humans, A-002 twice a day (Example 4). The class given is in vivo, human. The settings on record: week 8. Here is the method: as §1, §2
For experiment [5], the system named is ApoE−/− mice. The experiment can be described thus: Atherosclerotic plaque coverage of the aorta in ApoE−/− mice (Example 1). The class given is in vivo. The note with it: at 16 weeks. Here is the method: Male ApoE^−/− mice were fed a high fat diet (21% fat, 0.15% cholesterol, 19.5% casein) ad libitum for two weeks in order to acclimate to the diet. Plasma cholesterol levels and body weight were measured in order to obtain baseline levels, and mice were randomized into three groups of 20 mice based on these measurements. After the acclimation period, mice remained on the high fat diet and were administered A-002 (30 mg/kg or 90 mg/kg) or vehicle only (5% acacia) twice a day for 16 weeks by oral gavage.
At the end of the 16th week, mice were sacrificed and plasma samples, heart tissue, and aortas from the heart to approximately 3 mm distal to the iliac bifurcation were collected. Aortas were placed on microscope slides and stained with Oil Red O for scanning and image analysis of atherosclerotic lesion size. Vessel images were captured using a Microtek Scanmaker 9600XL scanner (Microtek, Carson, Calif.) and Photoshop 6.0 software (Adobe Systems Inc., San Jose, Calif.). Atherosclerotic plaque coverage was quantified for the entire length of the vessel including the arch using Image-Pro Plus software. Vessels were also analyzed for plaque coverage in the descending abdominal aorta, starting in the region of the first intercostal branches to the iliac bifurcation (not including the arch). Plaque content was expressed as a percent of the aortic surface. […]

The mark [6] stands for this setting: statin subpopulation with baseline serum LDL greater than 70 mg/dl.
Setting [7] is: high dose A-002 (1.56 g/kg diet).
Setting [8] is: low dose A-002 (0.0156 g/kg diet).
[9] abbreviates: metabolic syndrome subpopulation.

With `CCc1c(C(=O)C(N)=O)c2c(OCC(=O)OC)cccc2n1Cc1ccccc1` [A-002, [[3-(2-Amino-1,2-dioxoethyl)-2-ethyl-1-(phenylmethyl)-1H-indol-4-yl]oxy]acetic acid methyl ester], the “% change vs. baseline (median [CRP])” value in experiment [1] (ITT population) is recorded as “+5.4%”; in experiment [1] (setting [6]), “+9.1%”; in experiment [1] (statin subpopulation), “+8.7%”; in experiment [4] (setting [9]), −12.50%; in experiment [4] (serum, ITT population), −13.33%. For the same molecule, the “Change in median [CRP] vs. baseline” value in experiment [1] (setting [6]) is “+0.10 mg/L”; in experiment [1] (statin subpopulation) it was “+0.10 mg/L”; in experiment [4] (setting [9]) it was -0.3 mg/L; in experiment [4] (serum, ITT population) it was -0.20 mg/L. In addition, the “Change in mean % en face lesion vs. control” value in experiment [2] (setting [7]) is −4.158%; in experiment [2] (setting [8]), −2.241%. The figures for the “Mean % en face lesion” value in experiment [2] (setting [7]) and in experiment [2] (setting [8]) were 1.469% and 3.386%, respectively. In addition, in experiment [3], the “% change vs. baseline (mean [IL-6])” value was −4.29%. In experiment [3], the “Change in mean [IL-6] vs. baseline” value is -0.24 pg/mL. Besides, the “plaque coverage in aortic tissue” value was 6.3% in experiment [5] (30 mg/kg A-002 twice a day) and 6.8% in experiment [5] (90 mg/kg A-002 twice a day).
